The NIST ThermoML archive (doi:10.1016/j.tca.2017.06.023)

What was measured:
[1] = xn = mol fraction of the nth substance listed; conditions: 313.15 K, 100 kPa, Liquid; for viscosity: Capillary tube (Ostwald / Ubbelohde) method; for speed of sound: Frequency=3 MHz, Sing-around technique in a fixed-path interferometer; for mass density: Vibrating tube method
[2] = refractive index (Na D-line) (dimensionless); xn = mol fraction of the nth substance listed; conditions: 100 kPa, Liquid, Standard Abbe refractometry

CC(=O)N(C)C [N,N-dimethylethanamide] + CC(C)O
[1]
Conditions	mass density [kg/m3]	speed of sound [m/s]	viscosity [mPa·s]
x1 = 0.0551	778.1	1107.6	1.223
x1 = 0.1091	787.72	1127.3	1.129
x1 = 0.2113	805.29	1162.2	1.008
x1 = 0.3066	821.08	1193.5	0.933
x1 = 0.4084	837.39	1225.2	0.879
x1 = 0.5049	852.41	1254.2	0.849
x1 = 0.6056	867.62	1282.9	0.828
x1 = 0.7028	881.85	1313.2	0.809
x1 = 0.8024	895.96	1342.1	0.795
x1 = 0.8956	908.71	1368.5	0.779
x1 = 0.9464	915.46	1382.5	0.772
x1 = 1	922.43	1393.3	0.764

refractive index, [2]
Conditions	283.15 K	298.15 K	313.15 K
x1 = 0.0551	1.38572	1.37924	1.37249
x1 = 0.1091	1.38973	1.38322	1.37646
x1 = 0.2113	1.39698	1.39042	1.38365
x1 = 0.3066	1.40342	1.3968	1.39004
x1 = 0.4084	1.40997	1.40331	1.39653
x1 = 0.5049	1.4159	1.40919	1.40242
x1 = 0.6056	1.42182	1.41506	1.40827
x1 = 0.7028	1.42729	1.42049	1.4137
x1 = 0.8024	1.43267	1.42581	1.41903
x1 = 0.8956	1.43751	1.43061	1.42383
x1 = 0.9464	1.44007	1.43317	1.42638
x1 = 1	1.44273	1.43579	1.42901
